Reference: US7732457B2, “Amino-pyridines as inhibitors of β-secretase” (Wyeth LLC, priority 2005, dated 2010)
Structures can show the parent of a compound that is named as a salt.

Test system: not given
Experiment: not given
Details: not given

| Compound | melting point [°C] |
| --- | --- |
| CCCCCOc1ccc(-c2ccc(-c3ccccc3Cl)n2Cc2ccc(OC)c(NCCCO)n2)cc1 (as salt: hydrochloride) [Example 41, 3-{6-[2-(2-Chloro-phenyl)-5-(4-pentyloxy-phenyl)-pyrrol-1-ylmethyl]-3-methoxy-pyridin-2-ylamino}-propan-1-ol hydrochloride] | 86 to 88 |
| Nc1cccc(Cn2c(-c3ccc(-c4cccnc4)cc3)ccc2-c2ccccc2Cl)n1 [Example 28] | 163 to 166 |
| Nc1cccc(Cn2c(-c3ccc(Oc4ccc(Br)cc4)cc3)ccc2-c2ccccc2Cl)n1 (as salt: hydrochloride) [Example 38, 6-[2-[4-(4-Bromophenoxy)phenyl]-5-(2-chlorophenyl)pyrrol-1-ylmethyl]pyridin-2-ylamine hydrochloride] | 130 to 138 |
| Cc1cccc(C(=O)Nc2ccc(-c3ccc(-c4ccccc4Cl)n3Cc3cccc(N)n3)cc2)c1 [Example 1, N-{4-[1-(6-Amino-pyridin-2-ylmethyl)-5-(2-chloro-phenyl)-1H-pyrrol-2-yl]-phenyl}-3-methyl-benzamide] | 108 to 118 |
| CCOC(=O)c1ccc(-c2ccc(-c3ccc(F)cc3)n2Cc2cccc(N)n2)cc1 [Example 57, Ethyl 4-[1-[(6-aminopyridin-2-yl)methyl]-5-(4-fluorophenyl)-1H-pyrrol-2-yl]benzoate] | 172 to 173 |
| CCCOc1ccc(-c2ccc(-c3ccccc3)n2Cc2cccc(N)n2)cc1 [Example 56, 6-{[2-phenyl-5-(4-propoxyphenyl)-1H-pyrrol-1-yl]methyl}pyridin-2-amine] | 106 to 107 |
| CCCCCNc1ccc(-c2ccc(-c3ccccc3Cl)n2Cc2cccc(N)n2)cc1 (as salt: hydrochloride) [Example 53, 6-[2-(2-Chloro-phenyl)-5-(4-pentylamino-phenyl)-pyrrol-1-ylmethyl]-pyridin-2-ylamine hydrochloride] | 145 to 147 |
| Nc1cccc(Cn2c(-c3ccc(Oc4nccs4)cc3)ccc2-c2ccccc2Cl)n1 (as salt: hydrochloride) [Example 32, 6-{2-(2-Chloro-phenyl)-5-[4-(thiazol-2-yloxy)-phenyl]-pyrrol-1-ylmethyl}-pyridin-2-ylamine hydrochloride] | 126 to 130 |
| Nc1cccc(Cn2c(-c3ccc(Oc4ncccn4)cc3)ccc2-c2ccccc2Cl)n1 (as salt: hydrochloride) [Example 31, 6-{2-(2-Chloro-phenyl)-5-[4-(Pyrimidin-2-yloxy)-phenyl]-pyrrol-1-ylmethyl}-pyridin-2-ylamine hydrochloride] | 135 to 140 |

Biological target: human BACE1 (Homo sapiens, UniProt P56817)
Sequence (P56817 46-501): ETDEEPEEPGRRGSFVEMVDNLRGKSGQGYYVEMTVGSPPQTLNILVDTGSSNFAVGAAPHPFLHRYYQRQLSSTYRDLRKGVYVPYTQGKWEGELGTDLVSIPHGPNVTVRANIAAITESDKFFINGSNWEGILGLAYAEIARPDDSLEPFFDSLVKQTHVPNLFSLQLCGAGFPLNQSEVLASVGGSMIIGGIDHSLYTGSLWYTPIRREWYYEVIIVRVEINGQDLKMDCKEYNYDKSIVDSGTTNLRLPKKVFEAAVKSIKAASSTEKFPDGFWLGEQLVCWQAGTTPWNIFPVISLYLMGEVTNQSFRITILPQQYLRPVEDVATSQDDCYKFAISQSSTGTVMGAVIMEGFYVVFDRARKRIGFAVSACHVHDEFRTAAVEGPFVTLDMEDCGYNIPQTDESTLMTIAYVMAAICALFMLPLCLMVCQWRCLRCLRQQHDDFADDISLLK
Experiment: BACE-1 fluorescent kinetic assay (cleavage of peptide substrate WABC-6)
Format: biochemical
Details: 10 nM enzyme, 25 μM substrate WABC-6, Na-Acetate pH 4.5, room temperature
Experimental: Evaluation of BACE-1 Binding Affinity of Test Compounds
Fluorescent Kinetic Assay
Dilution and mixing steps: total reaction volume: 100 μL
100 μM substrate dilution in 1×PBS was prepared, and
Fluorescence Readings: Readings at λex 320 nm and λem 420 nm are taken every 40 sec for 30 min at room temperature and the linear slope for substrate cleavage rate (vi) determined.

| Compound | IC50 [nM] | BACE 1 IC50 μM |
| --- | --- | --- |
| Nc1cccc(Cn2c(-c3ccc(-c4cccnc4)cc3)ccc2-c2ccccc2Cl)n1 [Example 28] | 110 to 1000 | – |
| CCCCCOc1ccc(-c2ccc(-c3ccccc3Cl)n2Cc2ccc(N)c(N)n2)cc1 [Example 42B, 6-[2-(2-Chlorophenyl)-5-(4-pentyloxyphenyl)pyrrol-1-ylmethyl]pyridine-2,3-diamine hydrochloride] | – | D (D = >5.0 μM-0.10 = μM) |
| Cc1cccc(C(=O)Nc2ccc(-c3ccc(-c4ccccc4Cl)n3Cc3cccc(N)n3)cc2)c1 [Example 1, N-{4-[1-(6-Amino-pyridin-2-ylmethyl)-5-(2-chloro-phenyl)-1H-pyrrol-2-yl]-phenyl}-3-methyl-benzamide] | – | D (D = >5.0 μM-0.10 = μM) |
| CCOC(=O)c1ccc(-c2ccc(-c3ccc(F)cc3)n2Cc2cccc(N)n2)cc1 [Example 57, Ethyl 4-[1-[(6-aminopyridin-2-yl)methyl]-5-(4-fluorophenyl)-1H-pyrrol-2-yl]benzoate] | – | D (D = >5.0 μM-0.10 = μM) |
| CCCOc1ccc(-c2ccc(-c3ccccc3)n2Cc2cccc(N)n2)cc1 [Example 56, 6-{[2-phenyl-5-(4-propoxyphenyl)-1H-pyrrol-1-yl]methyl}pyridin-2-amine] | 1100 to 5000 | – |
| CCCCCOc1ccc(-c2ccc(-c3ccccc3Cl)n2Cc2ccc(OCCCO)c(N)n2)cc1 [Example 43A, 3-{(2-Amino-6-[2-(2-chlorophenyl)-5-(4-pentyloxyphenyl)pyrrol-1-ylmethyl]pyridin-3-yloxy}propan-1-ol hydrochloride] | – | D (D = >5.0 μM-0.10 = μM) |
| Nc1cccc(Cn2c(-c3ccc(Oc4ccc(Br)cc4)cc3)ccc2-c2ccccc2Cl)n1 [Example 38, 6-[2-[4-(4-Bromophenoxy)phenyl]-5-(2-chlorophenyl)pyrrol-1-ylmethyl]pyridin-2-ylamine hydrochloride] | – | D (D = >5.0 μM-0.10 = μM) |
| Nc1cccc(Cn2c(-c3ccc(Oc4nccs4)cc3)ccc2-c2ccccc2Cl)n1 [Example 32, 6-{2-(2-Chloro-phenyl)-5-[4-(thiazol-2-yloxy)-phenyl]-pyrrol-1-ylmethyl}-pyridin-2-ylamine hydrochloride] | 110 to 1000 | – |
| CC(=O)c1ccc(Oc2ccc(-c3ccc(-c4ccccc4Cl)n3Cc3cccc(N)n3)cc2)cc1 [Example 37, 1-(4-{4-[1-(6-Aminopyridin-2-ylmethyl)-5-(2-chlorophenyl)-1H-pyrrol-2-yl]phenoxy}-phenyl)ethanone hydrochloride] | 110 to 1000 | – |
| CCCCCOc1ccc(-c2ccc(-c3ccccc3Cl)n2Cc2ccc(OC)c(NCCCO)n2)cc1 [Example 41, 3-{6-[2-(2-Chloro-phenyl)-5-(4-pentyloxy-phenyl)-pyrrol-1-ylmethyl]-3-methoxy-pyridin-2-ylamino}-propan-1-ol hydrochloride] | – | D (D = >5.0 μM-0.10 = μM) |
| CCCCCNc1ccc(-c2ccc(-c3ccccc3Cl)n2Cc2cccc(N)n2)cc1 [Example 53, 6-[2-(2-Chloro-phenyl)-5-(4-pentylamino-phenyl)-pyrrol-1-ylmethyl]-pyridin-2-ylamine hydrochloride] | 1100 to 5000 | – |
| CCCCCCOc1ccc(-c2ccc(-c3ccccc3Cl)n2Cc2cccc(N)n2)cc1.Cl [Example 17, 6-[2-(2-Chloro-phenyl)-5-(4-hexyloxy-phenyl)-pyrrol-1-ylmethyl]-pyridin-2-ylamine hydrochloride] | – | D (D = >5.0 μM-0.10 = μM) |
| Nc1cccc(Cn2c(-c3ccc(-c4ccccc4)cc3)ccc2-c2ccccc2Cl)n1 [Example 27, 6-[2-Biphenyl-4-yl-5-(2-chlorophenyl)pyrrol-1-ylmethyl]pyridin-2-ylamine] | – | D (D = >5.0 μM-0.10 = μM) |
| CCCCCOc1ccc(-c2ccc(-c3ccccc3Cl)n2Cc2ccc(OC)c(N)n2)cc1 [Example 40, 6-[2-(2-Chlorophenyl)-5-(4-pentyloxyphenyl)-pyrrol-1-ylmethyl]-3-methoxypyridin-2-ylamine hydrochloride] | – | D (D = >5.0 μM-0.10 = μM) |
| Nc1cccc(Cn2c(-c3ccc(NC(=O)c4ccccc4)cc3)ccc2-c2ccccc2Cl)n1 [Example 3, N-{4-[1-(6-Amino-pyridin-2-ylmethyl)-5-(2-chloro-phenyl)-1H-pyrrol-2-yl]-phenyl}-benzamide] | – | D (D = >5.0 μM-0.10 = μM) |
| Nc1cccc(Cn2c(-c3ccc(Oc4ncccn4)cc3)ccc2-c2ccccc2Cl)n1 [Example 31, 6-{2-(2-Chloro-phenyl)-5-[4-(Pyrimidin-2-yloxy)-phenyl]-pyrrol-1-ylmethyl}-pyridin-2-ylamine hydrochloride] | 1100 to 5000 | – |
| Nc1cccc(Cn2c(-c3ccc(-c4cncnc4)cc3)ccc2-c2ccccc2Cl)n1 [Example 29, 6-[2-(2-Chloro-phenyl)-5-(4-pyrimidin-5-yl-phenyl)-pyrrol-1-ylmethyl]-pyridin-2-ylamine] | 110 to 1000 | – |
| CCCCCOc1ccc(-c2ccc(-c3ccccc3Cl)n2Cc2ccc(OCCCC#N)c(N)n2)cc1 [Example 43B, 4-{2-Amino-6-[2-(2-chlorophenyl)-5-(4-pentyloxyphenyl)pyrrol-1-ylmethyl]-pyridin-3-yloxy}butyronitrile hydrochloride] | – | D (D = >5.0 μM-0.10 = μM) |
| CCCCCOc1ccc(-c2ccc(-c3ccccc3Cl)n2Cc2ccc(O)c(N)n2)cc1 [Example 42A, 2-Amino-6-[2-(2-chlorophenyl)-5-(4-pentyloxyphenyl)pyrrol-1-ylmethyl]pyridin-3-ol hydrochloride] | – | D (D = >5.0 μM-0.10 = μM) |
